Patent US6946253B2, “Herpes zinc finger motifs” (University Court of the University of Glasgow, priority 2000, dated 2005)

Assays:
[1] = tested on: baby hamster kidney BHK21/C13 cells; assay: Cytotoxicity, Trypan Blue exclusion staining; assay type: cell-based; conditions: 100 μM (highest concentration), up to 4 days
Description: Cytotoxicity. Both compounds azodicarbonamide (ADA, NSC 674447) and 2,2′,-dithiobisbenzamide (DIBA, NSC 654077) were dissolved at the appropriate concentration in 0.1% (v/v) dimethylsulphoxide (DMSO) in Eagle's modified medium. Confluent monolayers (2×10^6) of baby hamster kidney BHK21/C13 cells were incubated with various concentrations of either ADA or DIBA (1,10,100 μM) or as a control 0.1% (v/v) DMSO, and cell viability determined every day for 4 days by Trypan Blue exclusion staining (23).
Determination or cytotoxicity of ADA and DIBA. In view of the distinctive sequence conservation of the IE63 zinc finger two previously known zinc-ejecting anti-HIV-1 compounds, 2,2′-dithiobisbenzamide (DIBA) and azodicarbonamide (ADA) were tested for their effect on herpesvirus. To separate any effect on cell viability from a specific effect on virus replication, the effect of incubating BHK21/C13 cells in various concentrations of ADA, DIBA, and 0.1% (v/v) DMSO as a control, for up to 4 days was determined. Even at the highest concentration used (100 μM) 95% of the cells were viable compared to untreated BHK21/C13 cells (data not shown). Indeed any cytotoxicity observed was due to the DMSO in which the drugs were dissolved, as the cytotoxicity was equally great in those cells incubated with only DMSO (data not shown).

[2] = tested on: herpes simplex virus type 1 (HSV-1) strain 17; assay: Virus replication (virus yield) in BHK21/C13 cells; assay type: cell-based; conditions: moi 5, 24 h pi
Description: (§1) Virus replication. Semi-confluent monolayers of BHK21/C13 cells (2×10^6) were pre-incubated with the appropriate drug concentration, 0.1% DMSO (v/v) or mock treated as a control for 24 h and subsequently infected at a multiplicity of infection (moi) of 5 plaque forming units (pfu)/cell with either herpes simplex virus type 1 (HSV-1) strain 17 or HSV-2 strain HG52 and harvested 24 h post-infection (pi). The virus yield was determined by releasing the virus into the supernatant by sonication and titration on BHK21/C13 cells. Results were expressed as pfu/10^6 cells and % reduction in yield as compared to the untreated control (23).
(§2) Antiviral effect of ADA and DIBA. Two experiments were carried out. In the first, the effect of varying concentrations of ADA and DIBA on the replication of HSV-1 was analysed. In the second, the effect on both HSV-1 and HSV-2 was determined.

[3] = tested on: HSV-2 strain HG52; assay: Virus replication (virus yield) in BHK21/C13 cells; assay type: cell-based, herpes simplex virus type 2; conditions: experiment 2 (Table 2), moi 5, 24 h pi
Description: as §1, §2

[4] = tested on: HSV-1; assay: Plaque reduction assay in BHK21/C13 cells; assay type: cell-based, herpes simplex virus type 1; conditions: HSV-1, plaque reduction assay
Description: Plaque reduction assay. Confluent monolayers (4×10^6 cells) of BHK21/C13 cells were preincubated with the appropriate drug concentration, 0.1% DMSO(v/v) or mock treated as a control for 24 h and subsequently infected at a moi of 400 pfu/plate with either HSV-1 or HSV-2 and incubated for 48 h at 37° C. […] Tests of each drug concentration were performed in triplicate and the average of the 3 plates calculated. Results were expressed as pfu/plate and % of the number of plaques on the untreated control plates (23).
(§3) Plaquing Efficiency in the Presence of ADA and DIBA. To determine if the reduction in virus yield seen in the previous experiment was due to a virucidal effect, inhibition of virus entry (adsorption penetration) or intracellular replication, a plaque reduction assay was carried out. Here, the ability of the virus to plaque was measured. An effect on the stability of the virus particle or virus entry would lead to a reduction in the number of plaques compared to the control untreated plates for a given amount of virus. In contrast, an effect on intracellular virus replication would not lead to a significant reduction in plaques.

[5] = tested on: HSV-2; assay: Plaque reduction assay in BHK21/C13 cells; assay type: cell-based, herpes simplex virus type 2; conditions: HSV-2, plaque reduction assay
Description: Plaque reduction assay. Confluent monolayers (4×10^6 cells) of BHK21/C13 cells were preincubated with the appropriate drug concentration, 0.1% DMSO(v/v) or mock treated as a control for 24 h and subsequently infected at a moi of 400 pfu/plate with either HSV-1 or HSV-2 and incubated for 48 h at 37° C. […] Tests of each drug concentration were performed in triplicate and the average of the 3 plates calculated. […]
as §3

[6] = experiment 1 (Table 1), HSV-1, 1 μM
[7] = experiment 1 (Table 1), HSV-1, 10 μM
[8] = experiment 1 (Table 1), HSV-1, 100 μM
[9] = experiment 2 (Table 2), HSV-1, 1 μM
[10] = experiment 2 (Table 2), HSV-1, 10 μM
[11] = experiment 2 (Table 2), HSV-1, 100 μM

| SMILES | cells viable compared to untreated BHK21/C13 cells [1] [%] | % UNTREATED CONTROL (virus yield) [2, 6] [%] | VIRUS YIELD (pfu/10^6 BHK cells) [2, 6] | VIRUS YIELD (pfu/BHK cell) [2, 6] [pfu/BHK cell] | % UNTREATED CONTROL (virus yield) [2, 7] [%] | VIRUS YIELD (pfu/10^6 BHK cells) [2, 7] | VIRUS YIELD (pfu/BHK cell) [2, 7] [pfu/BHK cell] | % UNTREATED CONTROL (virus yield) [2, 8] [%] | VIRUS YIELD (pfu/10^6 BHK cells) [2, 8] | VIRUS YIELD (pfu/BHK cell) [2, 8] [pfu/BHK cell] | % UNTREATED CONTROL (virus yield) [2, 9] [%] | VIRUS YIELD (pfu/10^6 BHK cells) [2, 9] | VIRUS YIELD (pfu/BHK cell) [2, 9] [pfu/BHK cell] | % UNTREATED CONTROL (virus yield) [2, 10] [%] | VIRUS YIELD (pfu/10^6 BHK cells) [2, 10] | VIRUS YIELD (pfu/BHK cell) [2, 10] [pfu/BHK cell] | VIRUS YIELD (pfu/10^6 BHK cells) [2, 11] | VIRUS YIELD (pfu/BHK cell) [2, 11] [pfu/BHK cell] | % UNTREATED CONTROL (virus yield) ([3]; HSV-2, 1 μM) [%] | VIRUS YIELD (pfu/10^6 BHK cells) ([3]; HSV-2, 1 μM) | further results |
| --- | --- | --- | --- | --- | --- | --- | --- | --- | --- | --- | --- | --- | --- | --- | --- | --- | --- | --- | --- | --- | --- |
| NC(=O)N=NC(N)=O [ADA, azodicarbonamide] | 95 | 76 | 6.1 × 10^8 pfu/10^6 BHK cells | 610 | 19 | 1.5 × 10^8 pfu/10^6 BHK cells | 150 | 11 | 9 × 10^6 pfu/10^6 BHK cells | 9.0 | 15 | 9.3 × 10^7 pfu/10^6 BHK cells | 93 | 1.4 | 8.5 × 10^6 pfu/10^6 BHK cells | 8.5 | 1.2 × 10^6 pfu/10^6 BHK cells | 1.2 | 13 | 9.4 × 10^6 pfu/10^6 BHK cells | VIRUS YIELD (pfu/BHK cell) ([3]; HSV-2, 1 μM): 9.4 pfu/BHK cell; % UNTREATED CONTROL (virus yield) ([3]; HSV-2, 10 μM): 1.2%; VIRUS YIELD (pfu/10^6 BHK cells) ([3]; HSV-2, 10 μM): 8.5 × 10^5 pfu/10^6 BHK cells; VIRUS YIELD (pfu/BHK cell) ([3]; HSV-2, 10 μM): 0.85 pfu/BHK cell; VIRUS YIELD (pfu/10^6 BHK cells) ([3]; HSV-2, 100 μM): 2.3 × 10^5 pfu/10^6 BHK cells; VIRUS YIELD (pfu/BHK cell) ([3]; HSV-2, 100 μM): 0.23 pfu/BHK cell; size of the plaques [4]: reduction in the size of the plaques; size of the plaques [5]: reduction in the size of the plaques |
| NC(=O)c1ccccc1SSc1ccccc1C(N)=O [DIBA, 2,2′-dithiobisbenzamide] | 95 | 85 | 6.8 × 10^8 pfu/10^6 BHK cells | 680 | 20 | 1.6 × 10^8 pfu/10^6 BHK cells | 160 | 2.5 | 2 × 10^7 pfu/10^6 BHK cells | 20 | 20 | 1.2 × 10^8 pfu/10^6 BHK cells | 120 | 1.6 | 9.6 × 10^6 pfu/10^6 BHK cells | 9.6 | 1.9 × 10^6 pfu/10^6 BHK cells | 1.9 | 17 | 1.2 × 10^7 pfu/10^6 BHK cells | VIRUS YIELD (pfu/BHK cell) ([3]; HSV-2, 1 μM): 12 pfu/BHK cell; % UNTREATED CONTROL (virus yield) ([3]; HSV-2, 10 μM): 2%; VIRUS YIELD (pfu/10^6 BHK cells) ([3]; HSV-2, 10 μM): 1.4 × 10^6 pfu/10^6 BHK cells; VIRUS YIELD (pfu/BHK cell) ([3]; HSV-2, 10 μM): 1.4 pfu/BHK cell; VIRUS YIELD (pfu/10^6 BHK cells) ([3]; HSV-2, 100 μM): 3.1 × 10^5 pfu/10^6 BHK cells; VIRUS YIELD (pfu/BHK cell) ([3]; HSV-2, 100 μM): 0.31 pfu/BHK cell; size of the plaques [4]: reduction in the size of the plaques; size of the plaques [5]: reduction in the size of the plaques |
